From the supplement of paper PMC10307832

Legend:
Assay in all cases: relative viability (nuclei count vs DMSO), 5 days (fraction); higher = more cells survive
Nelarabine + Luminespib = compound: COc1nc(N)nc2c1ncn2[C@@H]1O[C@H](CO)[C@@H](O)[C@@H]1O [Nelarabine] + CCNC(=O)c1noc(-c2cc(C(C)C)c(O)cc2O)c1-c1ccc(CN2CCOCC2)cc1 [Luminespib] (partner 0.01 µM)
Method in brief: (§1)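 Lung cancer cell lines were seeded in 1536-well plates and dosed by pin tool the next day, with either a single drug or a fixed anchor-drug dose combined with five library-drug doses (not always all listed) spaced in √10 steps. Five days later, one step fixed the cells and stained their nuclei (final 0.05% Triton X-100, 1% formaldehyde, 1 ug/ml Hoechst), and nuclei were counted on 4× images. Relative viability is the nuclei count in treated wells divided by the count in vehicle wells, and each value is the median of duplicate plates.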

Nelarabine + Palbociclib = compound: COc1nc(N)nc2c1ncn2[C@@H]1O[C@H](CO)[C@@H](O)[C@@H]1O [Nelarabine] + CC(=O)c1c(C)c2cnc(Nc3ccc(N4CCNCC4)cn3)nc2n(C2CCCC2)c1=O [Palbociclib] (partner 0.5 µM)
Method in brief: as §1

Nelarabine + Phenformin = compound: COc1nc(N)nc2c1ncn2[C@@H]1O[C@H](CO)[C@@H](O)[C@@H]1O [Nelarabine] + N=C(N)NC(=N)NCCc1ccccc1 [Phenformin] (partner 250 µM)
Method in brief: as §1

Adavosertib + Lapatinib = compound: C=CCn1c(=O)c2cnc(Nc3ccc(N4CCN(C)CC4)cc3)nc2n1-c1cccc(C(C)(C)O)n1 [Adavosertib] + CS(=O)(=O)CCNCc1ccc(-c2ccc3ncnc(Nc4ccc(OCc5cccc(F)c5)c(Cl)c4)c3c2)o1 [Lapatinib] (partner 2 µM)
Method in brief: as §1

| Cell Line | relative viability (Nelarabine + Luminespib; first compound 0.01 µM) | relative viability (Nelarabine + Luminespib; first compound 0.03162 µM) | relative viability (Nelarabine + Luminespib; first compound 0.1 µM) | relative viability (Nelarabine + Luminespib; first compound 0.3162 µM) | relative viability (Nelarabine + Luminespib; first compound 1 µM) | relative viability (Nelarabine + Palbociclib; first compound 0.01 µM) | relative viability (Nelarabine + Palbociclib; first compound 0.03162 µM) | relative viability (Nelarabine + Palbociclib; first compound 0.1 µM) | relative viability (Nelarabine + Palbociclib; first compound 0.3162 µM) | relative viability (Nelarabine + Palbociclib; first compound 1 µM) | relative viability (Nelarabine + Phenformin; first compound 0.01 µM) | relative viability (Nelarabine + Phenformin; first compound 0.03162 µM) | relative viability (Nelarabine + Phenformin; first compound 0.1 µM) | relative viability (Nelarabine + Phenformin; first compound 0.3162 µM) | relative viability (Nelarabine + Phenformin; first compound 1 µM) | relative viability (Adavosertib + Lapatinib; first compound 0.01 µM) | relative viability (Adavosertib + Lapatinib; first compound 0.03162 µM) | relative viability (Adavosertib + Lapatinib; first compound 0.1 µM) | relative viability (Adavosertib + Lapatinib; first compound 0.3162 µM) |
| --- | --- | --- | --- | --- | --- | --- | --- | --- | --- | --- | --- | --- | --- | --- | --- | --- | --- | --- | --- |
| SW 900 | 0.175 | 0.175 | 0.173 | 0.179 | 0.179 | 0.567 | 0.604 | 0.504 | 0.6 | 0.593 | 0.592 | 0.583 | 0.546 | 0.784 | 0.635 | – | – | – | – |
| PC-3 [JPC-3] | 0.651 | 0.429 | 0.697 | 0.703 | 0.601 | 0.562 | 0.544 | 0.524 | 0.526 | 0.533 | 0.475 | 0.437 | 0.473 | 0.472 | 0.459 | 0.445 | 0.418 | 0.47 | 0.429 |
| EKVX | 0.946 | 0.771 | 0.809 | 0.796 | 0.915 | 0.373 | 0.356 | 0.549 | 0.348 | 0.361 | 0.22 | 0.234 | 0.231 | 0.22 | 0.232 | 0.216 | 0.233 | 0.201 | 0.225 |
| NCI-H322M | 0.917 | 0.84 | 0.79 | 0.834 | 0.967 | 0.382 | 0.499 | 0.475 | 0.473 | 0.495 | 0.819 | 0.716 | 0.762 | 0.776 | 0.745 | – | 0.558 | 0.505 | 0.435 |
| NCI-H2087 | 0.193 | 0.125 | 0.155 | 0.18 | 0.196 | 0.251 | 0.189 | 0.268 | 0.198 | 0.192 | 0.577 | 0.408 | 0.397 | 0.457 | 0.569 | 0.951 | 1.21 | 1.15 | 1.3 |
| NCI-H2405 | 0.697 | 0.844 | 0.646 | 0.762 | 0.696 | 0.495 | 0.48 | 0.516 | 0.529 | 0.51 | 0.385 | 0.395 | 0.357 | 0.383 | 0.26 | 1.09 | 1.13 | 1.04 | 1.11 |
| HCC-366 | – | – | – | – | – | 0.632 | 0.272 | 0.473 | 0.453 | 0.416 | 0.644 | 0.602 | 0.663 | 0.585 | 0.589 | 1.09 | 1.07 | 1.08 | 1.13 |
| EBC-1 | – | – | – | – | – | – | – | – | – | – | – | – | – | – | – | 0.198 | 0.206 | 0.25 | 0.21 |
| NCI-H1563 | 0.527 | 0.58 | 0.584 | 0.549 | 0.564 | – | – | – | – | – | 0.707 | 0.665 | 0.63 | 0.73 | 0.665 | 1.02 | 1.02 | 0.969 | 0.932 |
| IA-LM | – | – | – | – | – | – | – | – | – | – | – | – | – | – | – | 0.996 | – | 1.03 | 0.901 |
| NCI-H1299 | – | – | – | – | – | – | – | – | – | – | – | – | – | – | – | 0.954 | 0.968 | 0.977 | 0.431 |
| NCI-H1703 | – | – | – | – | – | – | – | – | – | – | – | – | – | – | – | 1.19 | 1.1 | 0.93 | 0.257 |
| Calu-6 | – | – | – | – | – | – | – | – | – | – | – | – | – | – | – | 1.07 | 1 | 1.04 | 0.356 |
| NCI-H522 | – | 0.993 | 1.25 | 0.96 | 1.29 | 1.16 | 1.07 | 0.957 | 0.947 | 1.02 | 0.727 | 0.661 | 0.594 | 0.716 | 0.728 | – | – | – | – |
| NCI-H596 | 1.04 | 0.996 | 1.08 | 1.12 | 0.988 | – | – | – | – | – | 0.778 | 0.749 | 0.747 | 0.812 | 0.86 | 0.995 | 1.12 | 1.01 | 1 |
| LCLC-103H | 1.26 | 0.905 | 0.969 | 1.06 | 0.99 | 0.523 | 0.421 | 0.466 | 0.486 | 0.504 | 0.329 | 0.283 | 0.333 | 0.328 | 0.345 | – | – | – | – |
| NCI-H1623 | 0.467 | 0.574 | 0.588 | 0.483 | 0.621 | – | – | – | – | – | 0.44 | 0.508 | 0.584 | 0.544 | 0.545 | – | – | – | – |
| NCI-H2342 | 0.775 | 0.707 | 0.657 | 0.753 | 0.765 | 0.557 | 0.463 | 0.529 | 0.521 | 0.554 | 0.554 | 0.522 | 0.503 | 0.67 | 0.566 | – | – | – | – |
| A549 | – | – | – | – | – | – | – | – | – | – | 0.209 | 0.116 | 0.161 | 0.119 | 0.143 | 0.908 | 1.01 | 1.06 | 0.743 |
| ChaGo-K-1 | 0.821 | 0.361 | 0.637 | 0.659 | 0.562 | 0.939 | 0.815 | 0.964 | 0.989 | 0.876 | 0.549 | 0.426 | 0.458 | 0.529 | 0.48 | – | – | – | – |
